The target in this test is T1, Human M4 (Homo sapiens, UniProt P08173).
T1 construct: expressed in transfected cells; host or cells: CHO-K1 (ATCC), co-transfected with chimeric G protein Gqi5
T1 sequence (P08173 1-479): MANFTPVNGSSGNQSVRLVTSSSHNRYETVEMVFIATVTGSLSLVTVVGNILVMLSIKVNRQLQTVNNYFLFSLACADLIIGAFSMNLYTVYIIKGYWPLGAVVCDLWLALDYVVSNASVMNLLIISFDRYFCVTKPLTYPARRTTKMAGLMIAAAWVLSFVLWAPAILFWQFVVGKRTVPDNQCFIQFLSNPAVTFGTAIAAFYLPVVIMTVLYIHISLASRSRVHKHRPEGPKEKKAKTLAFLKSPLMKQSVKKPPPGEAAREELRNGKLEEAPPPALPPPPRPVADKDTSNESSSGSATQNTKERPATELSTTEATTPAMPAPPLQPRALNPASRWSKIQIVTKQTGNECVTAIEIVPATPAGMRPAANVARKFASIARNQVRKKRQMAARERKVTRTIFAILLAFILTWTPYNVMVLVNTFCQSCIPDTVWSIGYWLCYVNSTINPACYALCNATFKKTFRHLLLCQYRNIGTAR
The test can be described thus: mAChR M4 cell-based functional assay (calcium flux, decrease of EC80 acetylcholine response) in M4/Gqi5/CHO-K1 cells. The settings on record: CHO-K1 cells with human M4 and Gqi5; for remaining activity at 30 µM: % ACh maximum at 30 μM, read-out: Human M4 Emin; for IC50: antagonist mode: concentration-dependent decrease of response to EC80 acetylcholine. How it is done:
Human or rat M4 cDNA, along with the chimeric G protein Gqi5, were transfected into Chinese hamster ovary (CHO-K1) cells purchased from the American Type Culture Collection using Lipofectamine2000. M4/Gqi5/CHO cells were grown in Ham's F-12 medium containing 10% heat-inactivated fetal bovine serum (FBS), 20 mM HEPES, 500 μg/mL G418 sulfate, and 200 μg/mL Hygromycin B.
For high throughput measurement of agonist-evoked increases in intracellular calcium, CHO-K1 cells stably expressing muscarinic receptors were plated in growth medium lacking G418 and hygromycin at 15,000 cells/20 μL/well in Greiner 384-well black-walled, tissue culture (TC)-treated, clear-bottom plates (VWR). Cells were incubated overnight at 37° C. and 5% CO2. The next day, cells were washed using an ELX 405 (BioTek) with assay buffer; the final volume was then aspirated to 20 μL. Next, 20 μL of a 2.3 μM stock of Fluo-4/acetoxymethyl ester (Invitrogen, Carlsbad, CA), prepared as a 2.3 mM stock in DMSO and mixed in a 1:1 ratio with 10% (w/v) Pluronic F-127 and diluted in assay buffer, was added to the wells and the cell plates were incubated for 50 min at 37° C. and 5% CO2. Dye was removed by washing with the ELX 405 and the final volume was aspirated to 20 μL. Compound master plates were formatted in a 10 point concentration-response curve (CRC) format (1:3 dilutions) in 100% DMSO with a starting concentration of 10 or 1 mM using a BRAVO liquid handler (Agilent). Test compound CRCs were then transferred to daughter plates (240 nL) using the Echo acoustic plate reformatter (Labcyte, Sunnyvale, CA) and then diluted into assay buffer (40 μL) to a 2× stock using a Thermo Fisher Combi (Thermo Fisher Scientific, Waltham, MA).
Calcium flux was measured using the Functional Drug Screening System (FDSS) 6000 or 7000 (Hamamatsu Corporation, Tokyo, Japan) as an increase in the fluorescent static ratio. Compounds were applied to cells (20 μL, 2×) using the automated system of the FDSS at 2 seconds into the protocol and the data were collected at 1 Hz. At 143 s, 10 μL of an EC20 concentration of the muscarinic receptor agonist acetylcholine was added (5×), followed by the addition of 12 μL of an EC80 concentration of acetylcholine at the 268 s time point (5×). Agonist activity was analyzed as a concentration-dependent increase in calcium mobilization upon compound addition. Positive allosteric modulator activity was analyzed as a concentration-dependent increase in the EC20 acetylcholine response. Antagonist activity was analyzed as a concentration-dependent decrease in the EC80 acetylcholine response; for the purposes of the tables herein, an IC50 (inhibitory concentration 50) was calculated as a concentration-dependent decrease of the response elicited by an EC80 concentration of acetylcholine. Concentration-response curves were generated using a four-parameter logistical equation in XLFit curve fitting software (IDBS, Bridgewater, NJ) for Excel (Microsoft, Redmond, WA) or Prism (GraphPad Software, Inc., San Diego, CA) or the Dotmatics software platform (Dotmatics, Bishop's Stortford, UK).
Compounds were synthesized as described above. Activity (IC50 and Emin) was determined in the mAChR M4 cell-based functional assay as described above and the data are shown in Table 1.

As for `Fc1ccc(Cl)c(-c2ccc(NCc3cccc4c3CCN(Cc3ccccn3)C4)nn2)c1` [B4, 6-(2-chloro-5-fluorophenyl)-N-((2-(pyridin-2-ylmethyl)-1,2,3,4-tetrahydroisoquinolin-5-yl)methyl)pyridazin-3-amine], the remaining activity at 30 µM was determined as 6% and the IC50 worked out at 288 nM.

In the case of `Fc1ccc(Cl)c(-c2ccc(NCc3cccc4c3CCN(CCC3CCOCC3)C4)nn2)c1` [B5, 6-(2-chloro-5-fluorophenyl)-N-((2-(2-(tetrahydro-2H-pyran-4-yl)ethyl)-1,2,3,4-tetrahydroisoquinolin-5-yl)methyl)pyridazin-3-amine], the remaining activity at 30 µM was found to be 6% and the IC50 stood at 87 nM.

For `OC1(CN2CCc3c(CNc4ccc(-c5cc(F)ccc5Cl)nn4)cccc3C2)CCCCC1` [B6, 1-((5-(((6-(2-chloro-5-fluorophenyl)pyridazin-3-yl)amino)methyl)-3,4-dihydroisoquinolin-2(1H)-yl)methyl)cyclohexan-1-ol], the remaining activity at 30 µM came to 6% and the half-inhibitory concentration (IC50) was found to be 257 nM.

Take `Fc1cc(F)c(F)c(-c2ccc(NCc3cccc4c3CCN(CC3CCOCC3)C4)nn2)c1` [B7, N-((2-((tetrahydro-2H-pyran-4-yl)methyl)-1,2,3,4-tetrahydroisoquinolin-5-yl)methyl)-6-(2,3,5-trifluorophenyl)pyridazin-3-amine]: the remaining activity at 30 µM is 11% and the IC50 was found to be 616 nM.

With `Fc1ccc(F)c(-c2ccc(NCc3cccc4c3CCN(CC3CCOCC3)C4)nn2)c1` [B8, 6-(2,5-difluorophenyl)-N-((2-((tetrahydro-2H-pyran-4-yl)methyl)-1,2,3,4-tetrahydroisoquinolin-5-yl)methyl)pyridazin-3-amine], the remaining activity at 30 µM amounted to 8% and the IC50 came to 781 nM.

Take `Cn1cc2cc(-c3ccc(NCc4cccc5c4CCN(CC4CCOCC4)C5)nn3)ccc2n1` [B9, 6-(2-methyl-2H-indazol-5-yl)-N-((2-((tetrahydro-2H-pyran-4-yl)methyl)-1,2,3,4-tetrahydroisoquinolin-5-yl)methyl)pyridazin-3-amine]: the remaining activity at 30 µM is 8% and the IC50 stood at 1250 nM.

On to `Cc1ccc(F)cc1-c1ccc(NCc2cccc3c2CCN(CC2CCOCC2)C3)nn1` [B10, 6-(5-fluoro-2-methylphenyl)-N-((2-((tetrahydro-2H-pyran-4-yl)methyl)-1,2,3,4-tetrahydroisoquinolin-5-yl)methyl)pyridazin-3-amine], for which the remaining activity at 30 µM is 5% and the half-inhibitory concentration (IC50) was determined as 335 nM.

As for `CC(=O)Nc1ccc(-c2ccc(NCc3cccc4c3CCN(CC3CCOCC3)C4)nn2)cc1` [B11, N-(4-(6-(((2-((tetrahydro-2H-pyran-4-yl)methyl)-1,2,3,4-tetrahydroisoquinolin-5-yl)methyl)amino)pyridazin-3-yl)phenyl)acetamide], the remaining activity at 30 µM stood at 12% and the IC50 worked out at 2700 nM.

`c1ccc(-c2ccc(NCc3cccc4c3CCN(CC3CCOCC3)C4)nn2)cc1` [B12, 6-phenyl-N-((2-((tetrahydro-2H-pyran-4-yl)methyl)-1,2,3,4-tetrahydroisoquinolin-5-yl)methyl)pyridazin-3-amine]: the remaining activity at 30 µM stood at 13% and the IC50 stood at 3380 nM.

As for `[2H]C([2H])(C1CCOCC1)N1CCc2c(CNc3ccc(-c4cc(F)ccc4Cl)nn3)cccc2C1` [B13, 6-(2-chloro-5-fluorophenyl)-N-((2-((tetrahydro-2H-pyran-4-yl)methyl-d2)-1,2,3,4-tetrahydroisoquinolin-5-yl)methyl)pyridazin-3-amine], the remaining activity at 30 µM stood at 4% and the IC50 is 150 nM.

Take `[2H]C([2H])(C1CCOCC1)N1CCc2c(CNc3ccc(-c4cc(F)cc(F)c4F)nn3)cccc2C1` [B14, N-((2-((tetrahydro-2H-pyran-4-yl)methyl-d2)-1,2,3,4-tetrahydroisoquinolin-5-yl)methyl)-6-(2,3,5-trifluorophenyl)pyridazin-3-amine]: the remaining activity at 30 µM is 5% and the half-inhibitory concentration (IC50) was 919 nM.

These data come from US12516067B2, “Antagonists of the muscarinic acetylcholine receptor M4” (Vanderbilt University, priority 2020, dated 2026).
